Results on one compound are retold here after US20050137251A1, “Dexanabinol and dexanabinol analogs regulate inflammation related genes” (priority 2002, published 2005).

Molecules are shown by their SMILES.

The test system of experiment [1] is carrageenan induced paw edema. As to the kind of experiment: Carrageenan induced paw edema. Particulars: doses ranging from 0.2 to 0.5 mg/kg i.p., 3 hours after carrageenan. Type of experiment: in vivo, mice.
The test system of experiment [2] is Panc-1. As to the kind of experiment: Panc-1 pancreatic tumor cell proliferation (crystal violet). Particulars: Homo sapiens, 24 hours, read-out: Inhibition of Panc-1 cells proliferation. In kind it is cell-based. On the procedure: (§1) Cells from several tumor-derived cell lines are tested for their proliferation capacity in presence of our test compounds. Pancreatic tumor cell lines were obtained from ATCC. Panc-1 (ATCC # CRL-1469) were cultured in DMEM supplemented with 4 mM Glutamine, 4.5 g/L glucose, 1.5 g/L bicarbonate, antibiotics (penicillin, nystatin and streptomycin) and 10% heat inactivated fetal calf serum. Aspc-1 (ATCC # CRL-1682) were cultured in RPMI supplemented with 2 mM Glutamine, 10 mM HEPES, 1 mM sodium pyruvate, 4.5 g/L glucose, 1.5 g/L bicarbonate, antibiotics (penicillin, nystatin and streptomycin) and 20% heat inactivated fetal calf serum. Cells were seeded in a 24 well plate (10^5 cells/ml/well) and grown overnight. The cells are incubated with the test compounds (1-100 μM) or vehicle (0.1% DMSO final concentration). Cell viability was determined 24 hours later using standard crystal violet staining. The culture medium was removed from the wells and the cells were fixed by adding 1 ml/well of 2% formaldehyde in PBS for 10 minutes. […] The plates were agitated for 15 minutes at room temperature and 100 μl were transferred in duplicate to a 96 well plate for reading. Optical density (OD) of the cells was measured at 620 nm in an ELISA reader and results are expressed as % viable cells. Absorbance of untreated cells is recorded as 100%.

For experiment [3], the system named is Aspc-1. As to the kind of experiment: Aspc-1 pancreatic tumor cell proliferation (crystal violet). In kind it is cell-based. Particulars: up to 15 μM, 24 hours. On the procedure:
as §1

In the case of `CCCCCCC(C)(C)c1cc(O)c2c(c1)OC(C)(C)[C@H]1CC=C(CO)C[C@H]21` [dexanabinol, 1,1-dimethylheptyl-(3S,4S)-7-hydroxy-Δ^6-tetrahydrocannabinol], the “Reduction in paw thickness” value in experiment [1] is listed as “about 29%”. Besides, the inhibition at 15 µM in experiment [2] amounted to 26%. Besides, the “Effect on Aspc-1 proliferation” value in experiment [3] is reported as “not affected”.
